The source of these data is patent US8895733B2 (Novartis AG, priority 2010, dated 2014).

In the first assay the target is T1, Nav 1.7 (Homo sapiens, UniProt Q15858).
T1 construct: expressed in transfected cells
T1 sequence (Q15858 whole entry): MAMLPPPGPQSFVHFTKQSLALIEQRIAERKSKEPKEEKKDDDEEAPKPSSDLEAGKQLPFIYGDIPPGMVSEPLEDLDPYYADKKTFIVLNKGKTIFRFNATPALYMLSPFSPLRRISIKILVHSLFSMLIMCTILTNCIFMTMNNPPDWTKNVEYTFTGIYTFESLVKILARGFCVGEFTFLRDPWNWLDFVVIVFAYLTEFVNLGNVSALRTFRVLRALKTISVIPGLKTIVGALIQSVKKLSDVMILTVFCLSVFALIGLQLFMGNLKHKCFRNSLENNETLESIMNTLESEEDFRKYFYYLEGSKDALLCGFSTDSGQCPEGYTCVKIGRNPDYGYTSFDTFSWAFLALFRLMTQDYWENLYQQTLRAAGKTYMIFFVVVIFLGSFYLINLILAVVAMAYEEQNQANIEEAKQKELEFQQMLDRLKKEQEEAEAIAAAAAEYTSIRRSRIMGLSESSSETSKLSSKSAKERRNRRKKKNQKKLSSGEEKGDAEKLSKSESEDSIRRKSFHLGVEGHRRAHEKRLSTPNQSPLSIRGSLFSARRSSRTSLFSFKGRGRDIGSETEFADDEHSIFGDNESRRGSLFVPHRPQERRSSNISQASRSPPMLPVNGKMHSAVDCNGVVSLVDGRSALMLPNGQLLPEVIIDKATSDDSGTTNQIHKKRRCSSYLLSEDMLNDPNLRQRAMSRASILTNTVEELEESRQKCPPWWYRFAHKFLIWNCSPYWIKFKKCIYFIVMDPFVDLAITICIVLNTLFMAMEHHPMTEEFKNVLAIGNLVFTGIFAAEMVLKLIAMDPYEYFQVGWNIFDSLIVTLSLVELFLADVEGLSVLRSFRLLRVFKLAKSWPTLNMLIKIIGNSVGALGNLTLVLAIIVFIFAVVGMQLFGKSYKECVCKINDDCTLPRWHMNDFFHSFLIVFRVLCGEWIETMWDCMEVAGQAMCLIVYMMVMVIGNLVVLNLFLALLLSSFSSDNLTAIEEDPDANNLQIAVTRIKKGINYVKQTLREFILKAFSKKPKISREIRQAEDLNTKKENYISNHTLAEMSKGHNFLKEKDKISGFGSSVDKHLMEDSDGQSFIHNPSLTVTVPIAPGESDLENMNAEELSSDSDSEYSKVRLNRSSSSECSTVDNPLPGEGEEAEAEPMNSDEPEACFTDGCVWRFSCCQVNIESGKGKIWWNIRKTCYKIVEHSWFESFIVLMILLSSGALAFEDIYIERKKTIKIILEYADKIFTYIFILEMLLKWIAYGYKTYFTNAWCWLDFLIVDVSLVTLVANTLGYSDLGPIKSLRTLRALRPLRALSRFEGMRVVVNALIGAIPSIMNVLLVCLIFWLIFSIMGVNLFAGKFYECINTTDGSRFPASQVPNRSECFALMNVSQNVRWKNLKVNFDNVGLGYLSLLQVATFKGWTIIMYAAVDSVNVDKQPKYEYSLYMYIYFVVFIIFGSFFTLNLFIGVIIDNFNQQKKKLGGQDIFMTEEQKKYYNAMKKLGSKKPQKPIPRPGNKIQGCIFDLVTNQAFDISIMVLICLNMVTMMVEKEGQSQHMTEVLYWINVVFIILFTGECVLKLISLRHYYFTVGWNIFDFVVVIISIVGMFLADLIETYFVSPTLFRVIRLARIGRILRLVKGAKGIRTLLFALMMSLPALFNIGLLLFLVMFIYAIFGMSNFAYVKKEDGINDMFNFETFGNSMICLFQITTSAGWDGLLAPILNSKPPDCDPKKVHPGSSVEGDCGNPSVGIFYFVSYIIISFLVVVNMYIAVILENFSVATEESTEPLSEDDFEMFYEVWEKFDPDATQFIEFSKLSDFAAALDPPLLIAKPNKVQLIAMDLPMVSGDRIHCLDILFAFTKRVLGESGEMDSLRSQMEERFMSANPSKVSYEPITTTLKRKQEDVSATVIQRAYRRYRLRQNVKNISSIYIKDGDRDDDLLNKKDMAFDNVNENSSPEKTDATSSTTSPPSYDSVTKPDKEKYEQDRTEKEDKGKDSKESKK
Nature of the assay: Whole-cell voltage clamp electrophysiology, automated patch clamp (marker c in Table of Examples). The format is cell-based. The conditions noted are these: marker c = Automated patch clamp data; read-out: Nav 1.7 activity. In outline: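 Human NaV1.7 currents were recorded by whole-cell automated patch clamp, on IonWorks Quattro or another automated platform, typically in perforated-patch configuration. The stimulus protocol was designed to probe block mainly of the inactivated state, with a typical sweep stepping from about −65 mV holding to −10 mV, then −100 mV.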
In general terms: In patch-clamp work, channel activity is measured electrically.
For `COc1ccccc1Cc1nc(-c2nc(N)nc(N(C)c3ccccc3)n2)no1` [Example 199, 6-{5-[(2-methoxyphenyl)methyl]-1,2,4-oxadiazol-3-yl}-2-N-methyl-2-N-phenyl-1,3,5-triazine-2,4-diamine], the IC50 came to 8730 nM.

As to `CCCS(=O)(=O)N1CCC(c2nc(-c3nc(N)nc(N(C)c4ccccc4)n3)no2)C1` (stereo not drawn) [Example 200, 2-N-methyl-2-N-phenyl-6-{5-[1-(propane-1-sulfonyl)pyrrolidin-3-yl]-1,2,4-oxadiazol-3-yl}-1,3,5-triazine-2,4-diamine], the IC50 came to 8590 nM.

`CC(C)S(=O)(=O)N1CCC(c2nc(-c3nc(N)nc(N(C)c4ccccc4)n3)no2)C1` (stereo not drawn) [Example 201, 2-N-methyl-2-N-phenyl-6-{5-[1-(propane-2-sulfonyl)pyrrolidin-3-yl]-1,2,4-oxadiazol-3-yl}-1,3,5-triazine-2,4-diamine]: the IC50 turned out to be 3290 nM.

Take `CN(c1ccccc1)c1nc(N)nc(-c2noc(C3CCN(S(=O)(=O)CC(F)(F)F)C3)n2)n1` (stereo not drawn) [Example 202, 2-N-methyl-2-N-phenyl-6-(5-{1-[(2,2,2-trifluoroethane)sulfonyl]pyrrolidin-3-yl}-1,2,4-oxadiazol-3-yl)-1,3,5-triazine-2,4-diamine]: the IC50 was 1790 nM.

With `CN(c1ccccc1)c1nc(N)nc(-c2noc(C3CCN(S(=O)(=O)c4ccccc4)C3)n2)n1` (stereo not drawn) [Example 203, 6-{5-[1-(benzenesulfonyl)pyrrolidin-3-yl]-1,2,4-oxadiazol-3-yl}-2-N-methyl-2-N-phenyl-1,3,5-triazine-2,4-diamine], the IC50 turned out to be 4560 nM.

On to `CN(c1ccccc1)c1nc(N)nc(-c2noc(C3CCN(CCC(F)(F)F)C3)n2)n1` (stereo not drawn) [Example 204, 2-N-methyl-2-N-phenyl-6-{5-[1-(3,3,3-trifluoropropyl)pyrrolidin-3-yl]-1,2,4-oxadiazol-3-yl}-1,3,5-triazine-2,4-diamine], for which the IC50 was greater than 7830 nM.

On to `CC(CC(F)(F)F)N1CCC(c2nc(-c3nc(N)nc(N(C)c4ccccc4)n3)no2)C1` (stereo not drawn) [Example 205, 2-N-methyl-2-N-phenyl-6-{5-[1-(4,4,4-trifluorobutan-2-yl)pyrrolidin-3-yl]-1,2,4-oxadiazol-3-yl}-1,3,5-triazine-2,4-diamine], for which the IC50 turned out to be 1530 nM.

As for `CC(OCc1ccc(-c2nc(-c3nc(N)nc(N(C)c4ccccc4)n3)no2)cn1)C(F)(F)F` (stereo not drawn) [Example 206, 2-N-methyl-2-N-phenyl-6-[5-(6-{[(1,1,1-trifluoropropan-2-yl)oxy]methyl}pyridin-3-yl)-1,2,4-oxadiazol-3-yl]-1,3,5-triazine-2,4-diamine], the IC50 amounted to 17 nM.

Turning to `CN(c1ccccc1)c1nc(N)nc(-c2noc(-c3ccc(COCC4CC4)nc3)n2)n1` [Example 208, 6-(5-{6-[(cyclopropylmethoxy)methyl]pyridin-3-yl}-1,2,4-oxadiazol-3-yl)-2-N-methyl-2-N-phenyl-1,3,5-triazine-2,4-diamine], the IC50 stood at 113 nM.

For `CC(OCC(F)(F)F)c1ccc(-c2nc(-c3nc(N)nc(N(C)c4ccccc4)n3)no2)cn1` (stereo not drawn) [Example 209, 2-N-methyl-2-N-phenyl-6-(5-{6-[1-(2,2,2-trifluoroethoxy)ethyl]pyridin-3-yl}-1,2,4-oxadiazol-3-yl)-1,3,5-triazine-2,4-diamine], the IC50 is 74 nM.

`CC(OCc1ccc(-c2nc(-c3nc(N)nc(Nc4ccccc4)n3)no2)cn1)C(F)(F)F` (stereo not drawn) [Example 210, 2-N-phenyl-6-[5-(6-{[(1,1,1-trifluoropropan-2-yl)oxy]methyl}pyridin-3-yl)-1,2,4-oxadiazol-3-yl]-1,3,5-triazine-2,4-diamine]: the IC50 is 33 nM.

Consider `Nc1nc(Nc2ccccc2)nc(-c2noc(-c3ccc(COCC4CC4)nc3)n2)n1` [Example 211, 6-(5-{6-[(cyclopropylmethoxy)methyl]pyridin-3-yl}-1,2,4-oxadiazol-3-yl)-2-N-phenyl-1,3,5-triazine-2,4-diamine], for which the IC50 turned out to be 44 nM.

In the case of `CC(OCC(F)(F)F)c1ccc(-c2nc(-c3nc(N)nc(Nc4ccccc4)n3)no2)cn1` (stereo not drawn) [Example 212, 2-N-phenyl-6-(5-{6-[1-(2,2,2-trifluoroethoxy)ethyl]pyridin-3-yl}-1,2,4-oxadiazol-3-yl)-1,3,5-triazine-2,4-diamine], the IC50 came to 211 nM.

Turning to `Nc1nc(Nc2ccccc2)nc(-c2noc(-c3ccc(COC4CCC4)nc3)n2)n1` [Example 213, 6-{5-[6-(cyclobutoxymethyl)pyridin-3-yl]-1,2,4-oxadiazol-3-yl}-2-N-phenyl-1,3,5-triazine-2,4-diamine], the IC50 came out at 67 nM.

The same assay, now with this note: marker c: Automated patch clamp data; read-out: Nav 1.7 activity.
In the case of `CS(=O)(=O)c1cccc(Nc2nc(N)nc(-c3noc(-c4ccc(OCC(F)(F)F)nc4)n3)n2)c1` [Example 189, 2-N-(3-methanesulfonylphenyl)-6-{5-[6-(2,2,2-trifluoroethoxy)pyridin-3-yl]-1,2,4-oxadiazol-3-yl}-1,3,5-triazine-2,4-diamine], the IC50 is 287 nM.

Take `CCN(c1ccccc1)c1nc(N)nc(-c2noc(-c3ccc(OC)cc3)n2)n1` [Example 190, 2-N-ethyl-6-[5-(4-methoxyphenyl)-1,2,4-oxadiazol-3-yl]-2-N-phenyl-1,3,5-triazine-2,4-diamine]: the IC50 amounted to 106 nM.

Consider `CCN(c1ccccc1)c1nc(N)nc(-c2noc(-c3c(F)cccc3OC)n2)n1` [Example 191, 2-N-ethyl-6-[5-(2-fluoro-6-methoxyphenyl)-1,2,4-oxadiazol-3-yl]-2-N-phenyl-1,3,5-triazine-2,4-diamine], for which the IC50 worked out at 67 nM.

Regarding `CCN(c1ccccc1)c1nc(N)nc(-c2noc(-c3ccccc3Cl)n2)n1` [Example 192, 6-[5-(2-chlorophenyl)-1,2,4-oxadiazol-3-yl]-2-N-ethyl-2-N-phenyl-1,3,5-triazine-2,4-diamine], the IC50 was determined as 123 nM.

For `CCN(c1ccccc1)c1nc(N)nc(-c2noc(-c3ccc(F)cc3Cl)n2)n1` [Example 193, 6-[5-(2-chloro-4-fluorophenyl)-1,2,4-oxadiazol-3-yl]-2-N-ethyl-2-N-phenyl-1,3,5-triazine-2,4-diamine], the IC50 was determined as 83 nM.

As for `Cc1cccc(N(C)c2nc(N)nc(-c3noc(-c4ccccc4OC(F)(F)F)n3)n2)c1` [Example 194, 2-N-methyl-2-N-(3-methylphenyl)-6-{5-[2-(trifluoromethoxy)phenyl]-1,2,4-oxadiazol-3-yl}-1,3,5-triazine-2,4-diamine], the IC50 was 843 nM.

For `Cc1cccc(N(C)c2nc(N)nc(-c3noc(-c4ccccc4Cl)n3)n2)c1` [Example 195, 6-[5-(2-chlorophenyl)-1,2,4-oxadiazol-3-yl]-2-N-methyl-2-N-(3-methylphenyl)-1,3,5-triazine-2,4-diamine], the IC50 came to 431 nM.

Take `CCOc1ccccc1-c1nc(-c2nc(N)nc(N(CC)c3ccccc3)n2)no1` [Example 196, 6-[5-(2-ethoxyphenyl)-1,2,4-oxadiazol-3-yl]-2-N-ethyl-2-N-phenyl-1,3,5-triazine-2,4-diamine]: the IC50 amounted to 764 nM.

As to `CCN(c1ccccc1)c1nc(N)nc(-c2noc(-c3cc(F)ccc3OC)n2)n1` [Example 197, 2-N-ethyl-6-[5-(5-fluoro-2-methoxyphenyl)-1,2,4-oxadiazol-3-yl]-2-N-phenyl-1,3,5-triazine-2,4-diamine], the IC50 is 571 nM.

`CCN(c1ccccc1)c1nc(N)nc(-c2noc(-c3ccccc3OC(F)(F)F)n2)n1` [Example 198, 2-N-ethyl-2-N-phenyl-6-{5-[2-(trifluoromethoxy)phenyl]-1,2,4-oxadiazol-3-yl}-1,3,5-triazine-2,4-diamine]: the IC50 was 777 nM.
